# According to ChEMBL document CHEMBL3992490, “Synthesis, spectroscopic properties and photodynamic activity of two cationic BODIPY derivatives with application in the photoinactivation of microorganisms” (Eur J Med Chem, 2017):
# Calls of active or inactive are those of the source. The rule behind the calls is not given here.
# Key:
# [1] = In vitro photodynamic activity in DMF/5% water assessed as singlet oxygen production by measuring photo-oxidation rate of DPBF after irradiation by absorption spectra analysis
# Escherichia coli [2] = assay: Dark toxicity against Escherichia coli EC7 assessed as cell viability at 5 uM measured after 30 mins by UV-visible spectroscopic method; details: 0.5 h
# [3] = In vitro photodynamic activity in DMF/5% water assessed as iodine production at 1 uM irradiated with visible light for 5 to 30 mins under aerobic condition in presence of 10 mM potassium iodide by UV-visible spectra analysis
# [4] = In vitro photodynamic activity in DMF/10% water assessed as reactive oxygen species production by measuring photo-oxidation rate of L-tryptophan after irradiation by absorption spectra analysis
# [5] = In vitro photodynamic activity in DMF assessed as singlet oxygen production by measuring photodegradation rate of DPBF after irradiation by absorption spectra analysis
# Staphylococcus aureus [6] = assay: Dark toxicity against Staphylococcus aureus ATCC 25923 assessed as cell viability at 1 uM measured after 30 mins by UV-visible spectroscopic method; details: 0.5 h
# Escherichia coli [7] = assay: Dark toxicity against Escherichia coli EC7 assessed as cell viability at 5 uM in presence of 10 mM potassium iodide measured after 30 mins by UV-visible spectroscopic method; details: 0.5 h
# [8] = In vitro photodynamic activity in DMF/5% water assessed as singlet oxygen production by measuring photo-oxidation rate of DPBF after irradiation in presence of 50 mM potassium iodide by absorption spectra analysis
# [9] = In vitro photodynamic activity in DMF/10% water assessed as reactive oxygen species production by measuring photo-oxidation rate of L-tryptophan after irradiation in presence of 50 mM potassium iodide by absorption spectra analysis
# [10] = In vitro photodynamic activity in DMF/5% water assessed as iodine production at 1 uM irradiated with visible light for 5 to 30 mins under argon condition in presence of 10 mM potassium iodide by UV-visible spectra analysis
# [11] = In vitro photodynamic activity in DMF/5% water assessed as reactive oxygen species production by measuring photo-oxidation rate of L-tryptophan after irradiation by absorption spectra analysis
# [12] = In vitro photodynamic activity in DMF/5% water assessed as reactive oxygen species production by measuring photo-oxidation rate of L-tryptophan after irradiation in presence of D-mannitol by absorption spectra analysis
# [13] = In vitro photodynamic activity in DMF/5% water assessed as iodine production at 1 uM under dark condition in presence of 10 mM potassium iodide by UV-visible spectra analysis
# [14] = In vitro photodynamic activity in DMF/5% water assessed as singlet oxygen production by measuring photo-oxidation rate of DPBF after irradiation in presence of 10 mM potassium iodide by absorption spectra analysis
# Staphylococcus aureus [15] = assay: Dark toxicity against Staphylococcus aureus ATCC 25923 assessed as cell viability at 1 uM in presence of 10 mM potassium iodide measured after 30 mins by UV-visible spectroscopic method; details: 0.5 h
# Staphylococcus aureus [16] = assay: Antibacterial activity against Staphylococcus aureus ATCC 25923 assessed as reduction in cell survival at 1 uM irradiated with visible light for 5 mins in presence of 10 mM potassium iodide by UV-visible spectroscopic method; assay type: functional
# Escherichia coli [17] = assay: Antibacterial activity against Escherichia coli EC7 assessed as reduction in cell survival at 5 uM irradiated with visible light for 15 mins by UV-visible spectroscopic method; assay type: functional
# Candida albicans [18] = assay: Dark toxicity against Candida albicans PC31 assessed as cell viability at 5 uM measured after 30 mins by UV-visible spectroscopic method; details: 0.5 h
# [19] = In vitro photodynamic activity in DMF assessed as reactive oxygen species production by measuring photo-oxidation rate of L-tryptophan after irradiation by absorption spectra analysis
# Candida albicans [20] = assay: Dark toxicity against Candida albicans PC31 assessed as cell viability at 5 uM in presence of 10 mM potassium iodide measured after 30 mins by UV-visible spectroscopic method; details: 0.5 h
# [21] = In vitro photodynamic activity in DMF/5% water assessed as reactive oxygen species production by measuring photo-oxidation rate of L-tryptophan after irradiation in presence of DABCO by absorption spectra analysis
# [22] = In vitro photodynamic activity in n-heptane/0.1 M AOT/water micelles assessed as singlet oxygen production by measuring photodegradation rate of DPBF after irradiation by absorption spectra analysis
# Staphylococcus aureus [23] = assay: Antibacterial activity against Staphylococcus aureus ATCC 25923 assessed as reduction in cell survival at 1 uM irradiated with visible light for 5 mins by UV-visible spectroscopic method; assay type: functional
# Escherichia coli [24] = assay: Antibacterial activity against Escherichia coli EC7 assessed as reduction in cell survival at 5 uM irradiated with visible light for 15 mins in presence of 10 mM potassium iodide by UV-visible spectroscopic method; assay type: functional
# [25] = Ratio of rate constant for induction of singlet oxygen production in DMF assessed as photodegradation rate of DPBF to rate constant for induction of reactive oxygen species production in DMF assessed as photodegradation rate of L-tryptophan
# Candida albicans [26] = assay: Anti-fungal activity against Candida albicans PC31 assessed as reduction in cell survival at 5 uM irradiated with visible light for 30 mins by UV-visible spectroscopic method; assay type: functional
# [27] = In vitro photodynamic activity in DMF assessed as singlet oxygen production by measuring decrease in DPBF level after irradiation by absorption spectra analysis; details: TDE = time-dependent effect
# Candida albicans [28] = assay: Anti-fungal activity against Candida albicans PC31 assessed as reduction in cell survival at 5 uM irradiated with visible light for 30 mins in presence of 10 mM potassium iodide by UV-visible spectroscopic method; assay type: functional
SMILES,K [1],Activity (Escherichia coli [2]),Activity [3],K [4],K [5],Activity (Staphylococcus aureus [6]),Activity (Escherichia coli [7]),K [8],K [9],Activity [10],K [11],K [12],Activity [13],K [14],Activity (Staphylococcus aureus [15]),Activity (Staphylococcus aureus [16]),Activity (Escherichia coli [17]),Activity (Candida albicans [18]),K [19],Activity (Candida albicans [20]),further results
C[N+](C)(C)CCCOc1ccc(C2=C3C=CC=[N+]3[B-](F)(F)n3cccc32)cc1,5.81 ×10⁻⁵ /s,Non-Toxic,Active,2.79 ×10⁻⁵ /s,4.15 ×10⁻⁵ /s,Non-Toxic,Non-Toxic,0.64 ×10⁻⁵ /s,9.55 ×10⁻⁵ /s,inactive,7.86 ×10⁻⁵ /s,1.56 ×10⁻⁵ /s,inactive,2.79 ×10⁻⁵ /s,Non-Toxic,Active,2.5 deltalog10CFU/ml,Non-Toxic,3.44 ×10⁻⁴ /s,Non-Toxic,K [21]: 3 ×10⁻⁵ /s; K [22]: 1.25 ×10⁻⁴ /s; Activity (Staphylococcus aureus [23]): >5 deltalog10CFU/ml; Activity (Escherichia coli [24]): Active; Ratio [25]: 8.3; Activity (Candida albicans [26]): 0.9 deltalog10CFU/ml; Activity [27]: Tde; Activity (Candida albicans [28]): Active
CC1=CC(C)=[N+]2C1=C(c1ccc([N+](C)(C)C)cc1)c1c(C)cc(C)n1[B-]2(F)F,1.8 ×10⁻⁴ /s,Non-Toxic,Active,2.13 ×10⁻⁵ /s,9.51 ×10⁻⁵ /s,Non-Toxic,Non-Toxic,1.02 ×10⁻⁴ /s,4.42 ×10⁻⁵ /s,inactive,4.75 ×10⁻⁵ /s,1.41 ×10⁻⁵ /s,inactive,1.58 ×10⁻⁴ /s,Non-Toxic,Active,2.5 deltalog10CFU/ml,Non-Toxic,3.06 ×10⁻⁴ /s,Non-Toxic,K [21]: 2.98 ×10⁻⁵ /s; K [22]: 1.95 ×10⁻⁴ /s; Activity (Staphylococcus aureus [23]): >5 deltalog10CFU/ml; Activity (Escherichia coli [24]): Active; Ratio [25]: 3.2; Activity (Candida albicans [26]): 3.7 deltalog10CFU/ml; Activity [27]: Tde; Activity (Candida albicans [28]): Active
